Experimental data: ChEMBL document CHEMBL4177608, “Design and synthesis of benzimidazole-based Rho kinase inhibitors for the treatment of glaucoma” (Bioorg Med Chem, 2017)
Values after ≈ are worked out from the molar mass of the structure shown.

Legend:
[1] = 1-Octanol/water partition coefficient, log P of compound at 2 mg after 24 hrs by spectrophotometry based shake flask method; format: physicochemical
[2] = Antioxidant activity assessed as DPPH free radical scavenging activity at 5 ug/ml after 30 mins by spectrophotometric analysis; format: functional
[3] = Antioxidant activity assessed as DPPH free radical scavenging activity at 25 ug/ml after 30 mins by spectrophotometric analysis; format: functional
[4] = Antioxidant activity assessed as DPPH free radical scavenging activity at 50 ug/ml after 30 mins by spectrophotometric analysis; format: functional
[5] = Antioxidant activity assessed as DPPH free radical scavenging activity at 100 ug/ml after 30 mins by spectrophotometric analysis; format: functional
[6] = Antioxidant activity assessed as DPPH free radical scavenging activity at 150 ug/ml after 30 mins by spectrophotometric analysis; format: functional
[7] = Antioxidant activity assessed as DPPH free radical scavenging activity at 200 ug/ml after 30 mins by spectrophotometric analysis; format: functional
[8] = Antioxidant activity assessed as DPPH free radical scavenging activity after 30 mins by spectrophotometric analysis; format: functional
Rattus norvegicus [9] = organism: Rattus norvegicus; test: Reduction in intraocular pressure in Wistar rat model of dexamethasone-induced elevated IOP assessed as change in intraocular pressure at 1 % w/v after 0.5 hrs by tonometry (reference value: 0%); format: functional; design: scale not given: the % may be the effect or the level left
Rattus norvegicus [10] = organism: Rattus norvegicus; test: Reduction in intraocular pressure in Wistar rat model of dexamethasone-induced elevated IOP assessed as change in intraocular pressure at 1 % w/v after 1 hr by tonometry (reference value: 0%); format: functional; design: scale not given: the % may be the effect or the level left
Rattus norvegicus [11] = organism: Rattus norvegicus; test: Reduction in intraocular pressure in Wistar rat model of dexamethasone-induced elevated IOP assessed as change in intraocular pressure at 1 % w/v after 1.5 hrs by tonometry (reference value: 0%); format: functional; design: scale not given: the % may be the effect or the level left
Rattus norvegicus [12] = organism: Rattus norvegicus; test: Reduction in intraocular pressure in Wistar rat model of dexamethasone-induced elevated IOP assessed as change in intraocular pressure at 1 % w/v after 2 hrs by tonometry (reference value: 0%); format: functional; design: scale not given: the % may be the effect or the level left
Rattus norvegicus [13] = organism: Rattus norvegicus; test: Reduction in intraocular pressure in Wistar rat model of dexamethasone-induced elevated IOP assessed as change in intraocular pressure at 1 % w/v after 2.5 hrs by tonometry (reference value: 0%); format: functional; design: scale not given: the % may be the effect or the level left
Rattus norvegicus [14] = organism: Rattus norvegicus; test: Reduction in intraocular pressure in Wistar rat model of dexamethasone-induced elevated IOP assessed as change in intraocular pressure at 1 % w/v after 3 hrs by tonometry (reference value: 0%); format: functional; design: scale not given: the % may be the effect or the level left
Rattus norvegicus [15] = organism: Rattus norvegicus; test: Reduction in intraocular pressure in Wistar rat model of dexamethasone-induced elevated IOP assessed as change in intraocular pressure at 1 % w/v after 4 hrs by tonometry (reference value: 0%); format: functional; design: scale not given: the % may be the effect or the level left
Rattus norvegicus [16] = organism: Rattus norvegicus; test: Reduction in intraocular pressure in Wistar rat model of dexamethasone-induced elevated IOP assessed as change in intraocular pressure at 1 % w/v after 5 hrs by tonometry (reference value: 0%); format: functional; design: scale not given: the % may be the effect or the level left
Rattus norvegicus [17] = organism: Rattus norvegicus; test: Reduction in intraocular pressure in Wistar rat model of dexamethasone-induced elevated IOP assessed as change in intraocular pressure at 1 % w/v after 6 hrs by tonometry (reference value: 0%); format: functional; design: scale not given: the % may be the effect or the level left
Rattus norvegicus [18] = organism: Rattus norvegicus; test: Reduction in intraocular pressure in Wistar rat model of dexamethasone-induced elevated IOP assessed as change in intraocular pressure in contralateral eye at 1 % w/v after 0.5 hrs by tonometry (reference value: 0%); format: ADME, organism-based; design: scale not given: the % may be the effect or the level left; conditions: in vivo, topical_or_ocular
Rattus norvegicus [19] = organism: Rattus norvegicus; test: Reduction in intraocular pressure in Wistar rat model of dexamethasone-induced elevated IOP assessed as change in intraocular pressure in contralateral eye at 1 % w/v after 1 hr by tonometry (reference value: 0%); format: ADME, organism-based; design: scale not given: the % may be the effect or the level left; conditions: in vivo, topical_or_ocular
Rattus norvegicus [20] = organism: Rattus norvegicus; test: Reduction in intraocular pressure in Wistar rat model of dexamethasone-induced elevated IOP assessed as change in intraocular pressure in contralateral eye at 1 % w/v after 1.5 hrs by tonometry (reference value: 0%); format: ADME, organism-based; design: scale not given: the % may be the effect or the level left; conditions: in vivo
Rattus norvegicus [21] = organism: Rattus norvegicus; test: Reduction in intraocular pressure in Wistar rat model of dexamethasone-induced elevated IOP assessed as change in intraocular pressure in contralateral eye at 1 % w/v after 2 hrs by tonometry (reference value: 0%); format: ADME, organism-based; design: scale not given: the % may be the effect or the level left; conditions: in vivo
Rattus norvegicus [22] = organism: Rattus norvegicus; test: Reduction in intraocular pressure in Wistar rat model of dexamethasone-induced elevated IOP assessed as change in intraocular pressure in contralateral eye at 1 % w/v after 2.5 hrs by tonometry (reference value: 0%); format: ADME, organism-based; design: scale not given: the % may be the effect or the level left; conditions: in vivo
Rattus norvegicus [23] = organism: Rattus norvegicus; test: Reduction in intraocular pressure in Wistar rat model of dexamethasone-induced elevated IOP assessed as change in intraocular pressure in contralateral eye at 1 % w/v after 3 hrs by tonometry (reference value: 0%); format: ADME, organism-based; design: scale not given: the % may be the effect or the level left; conditions: in vivo
Rattus norvegicus [24] = organism: Rattus norvegicus; test: Reduction in intraocular pressure in Wistar rat model of dexamethasone-induced elevated IOP assessed as change in intraocular pressure in contralateral eye at 1 % w/v after 4 hrs by tonometry (reference value: 0%); format: ADME, organism-based; design: scale not given: the % may be the effect or the level left; conditions: in vivo
Rattus norvegicus [25] = organism: Rattus norvegicus; test: Reduction in intraocular pressure in Wistar rat model of dexamethasone-induced elevated IOP assessed as change in intraocular pressure in contralateral eye at 1 % w/v after 5 hrs by tonometry (reference value: 0%); format: ADME, organism-based; design: scale not given: the % may be the effect or the level left; conditions: in vivo
Rattus norvegicus [26] = organism: Rattus norvegicus; test: Reduction in intraocular pressure in Wistar rat model of dexamethasone-induced elevated IOP assessed as change in intraocular pressure in contralateral eye at 1 % w/v after 6 hrs by tonometry (reference value: 0%); format: ADME, organism-based; design: scale not given: the % may be the effect or the level left; conditions: in vivo
Rattus norvegicus [27] = organism: Rattus norvegicus; test: Reduction in intraocular pressure in Wistar rat model of dexamethasone-induced elevated IOP assessed as onset time for reduction in intraocular pressure at 1 % w/v by tonometry; format: functional
Rattus norvegicus [28] = organism: Rattus norvegicus; test: Reduction in intraocular pressure in Wistar rat model of dexamethasone-induced elevated IOP assessed as peak effect time for reduction in intraocular pressure at 1 % w/v by tonometry; format: functional, organism-based
Rattus norvegicus [29] = organism: Rattus norvegicus; test: Reduction in intraocular pressure in Wistar rat model of dexamethasone-induced elevated IOP assessed as reduction in intraocular pressure at peak effect time at 1 % w/v by tonometry; format: functional; design: scale not given: the % may be the effect or the level left

Compound | logP at 24 h [1] | Activity [2] | Activity [3] | Activity [4] | Activity [5] | Activity [6] | Activity [7] | IC50 [8] | Activity (Rattus norvegicus [9]) | Activity (Rattus norvegicus [10]) | Activity (Rattus norvegicus [11]) | Activity (Rattus norvegicus [12]) | Activity (Rattus norvegicus [13]) | Activity (Rattus norvegicus [14]) | Activity (Rattus norvegicus [15]) | Activity (Rattus norvegicus [16]) | Activity (Rattus norvegicus [17]) | Activity (Rattus norvegicus [18]) | Activity (Rattus norvegicus [19]) | Activity (Rattus norvegicus [20]) | also measured
CCN1CCN(CC(=O)Nc2nc3ccccc3[nH]2)CC1 | 1.09 | 13.3% | 26.6% | 35.7% | 45.7% | 57.5% | 65.8% | 124.91 µg/mL (≈ 435 µM) | 4.12% | 6.23% | 9.55% | 10.6% | 12.25% | 8.93% | 5.65% | 0.53% | 0.45% | 1.4% | 2.37% | 3.73% | Activity (Rattus norvegicus [21]): 5.22%; Activity (Rattus norvegicus [22]): 4.8%; Activity (Rattus norvegicus [23]): 2.62%; Activity (Rattus norvegicus [24]): 0%; Activity (Rattus norvegicus [25]): 0%; Activity (Rattus norvegicus [26]): 0%; Time (Rattus norvegicus [27]): 0.5 h; Tmax (Rattus norvegicus [28]): 2.5 h; Activity (Rattus norvegicus [29]): 45.02%
O=C(CN1CCN(c2ccccc2)CC1)Nc1nc2ccccc2[nH]1 | 1.29 | 4.62% | 11.5% | 24.1% | 32.2% | 40.6% | 62.1% | 165.52 µg/mL (≈ 493 µM) | 2.55% | 4% | 7.75% | 11% | 13.5% | 12.18% | 7.77% | 1.33% | 0.27% | 1.97% | 3.25% | 4.12% | Activity (Rattus norvegicus [21]): 5%; Activity (Rattus norvegicus [22]): 5.65%; Activity (Rattus norvegicus [23]): 3.6%; Activity (Rattus norvegicus [24]): 1.55%; Activity (Rattus norvegicus [25]): 0%; Activity (Rattus norvegicus [26]): 0%; Time (Rattus norvegicus [27]): 0.5 h; Tmax (Rattus norvegicus [28]): 2.5 h; Activity (Rattus norvegicus [29]): 45.73%
O=C(CN1CCN(c2ncccn2)CC1)Nc1nc2ccccc2[nH]1 | 1.85 | 8.77% | 20.4% | 31% | 46.5% | 68.4% | 81.8% | 107.77 µg/mL (≈ 319 µM) | 3.5% | 7.42% | 10.92% | 15.45% | 11.77% | 9.1% | 5.62% | 3.15% | 0.35% | 0.95% | 1.85% | 2.05% | Activity (Rattus norvegicus [21]): 3.97%; Activity (Rattus norvegicus [22]): 2.1%; Activity (Rattus norvegicus [23]): 0.42%; Activity (Rattus norvegicus [24]): 0%; Activity (Rattus norvegicus [25]): 0%; Activity (Rattus norvegicus [26]): 0%; Time (Rattus norvegicus [27]): 0.5 h; Tmax (Rattus norvegicus [28]): 2 h; Activity (Rattus norvegicus [29]): 50%
COc1ccccc1N1CCN(CC(=O)Nc2nc3ccccc3[nH]2)CC1 | 0.97 | 10.8% | 21.3% | 35.7% | 43.2% | 55.2% | 64.5% | 132.65 µg/mL (≈ 363 µM) | 4.2% | 5.37% | 9.48% | 16.5% | 11.02% | 7.35% | 4.53% | 1.73% | 0.9% | 1.27% | 2.1% | 4.1% | Activity (Rattus norvegicus [21]): 4.77%; Activity (Rattus norvegicus [22]): 2.5%; Activity (Rattus norvegicus [23]): 1.7%; Activity (Rattus norvegicus [24]): 0%; Activity (Rattus norvegicus [25]): 0%; Activity (Rattus norvegicus [26]): 0%; Time (Rattus norvegicus [27]): 0.5 h; Tmax (Rattus norvegicus [28]): 2.5 h; Activity (Rattus norvegicus [29]): 49.92%
